From patent publication US4382920A, “Hormone-like peptides and use thereof” (Perignon Investments Ltd., priority 1980, dated 1983)

Assay: Body temperature of mice after intravenous injection
Type: in vivo
Details: for body temperature at 0 min: amount injected as listed per substance
Method: Type: Out-breed, white NMRI
Average body weight: 24-27 gm
Diet: Standard food pellet
Mice fasted 12-15 hrs. prior to testing (water given during this period)
Mice all separated from one another
Mice kept in quiet and dark environment
Testing time: 1 p.m.-3 p.m. each day
Test solution is prepared by:
(b) dissolving a known amount of the refined brain extract in 0.4 ml of trishydrochloric buffer and adjusting the pH of the solution to from about 7.0 to about 7.4 by titrating with microdrops of 1 M or 0.1 M sodium hydroxide solution.
Volume of solution injected into mice:
Solution is at room temperature when injected into mice.
Mouse is placed in restrainer
Injection is made in the tail vein
Injection time: 2 minutes
Body temperature is measured by inserting a thermistor into the anal cavity to a depth of 11/2 cm (thermistor is made by Thermovit, Fu. Armatherm, Lemgo, W. Germany)
Temperature measurements are begun immediately after injection, i.e., 2 minutes after injection started
The extract obtained from the brain of 40 lungfish is used. Five mice are used in obtaining the data on the aroused lungfish and nine mice are used for the data on the estivating lungfish.

| Compound | body temperature at 0 min (pH 7.0-7.4) | body temperature at 2 min | body temperature at 5 min | body temperature at 10 min | body temperature at 20 min | body temperature at 30 min | body temperature at 40 min | body temperature at 50 min | body temperature at 60 min | other results |
| --- | --- | --- | --- | --- | --- | --- | --- | --- | --- | --- |
| O=C(O)CCCC(=O)O [GLUTARIC ACID] | 36.6 | 36.5 | 37.0 | 38.1 | 38.5 | 38.5 | 38.4 | 38.6 | 39.0 | – |
| N[C@@H](CC(=O)O)C(=O)O [ASPARTIC ACID] | 36.7 | 35.5 | 36.7 | 38.0 | 37.5 | 37.6 | 37.8 | 37.8 | 37.8 | – |
| O=C([O-])O.[K+] [3.0 M KHCO3, KHCO3] | 37.1 | 34.7 | 35.0 | 36.5 | 37.8 | 37.9 | 38.4 | 38.4 | 38.0 | body temperature at 0 min (pH 7.0-7.4, listed as 0.3 M KHCO3): 37.6; body temperature at 0 min (pH 7.0-7.4, listed as 1.0 M KHCO3): 38.0; body temperature at 2 min (listed as 0.3 M KHCO3): 36.3; body temperature at 2 min (listed as 1.0 M KHCO3): 37.2; body temperature at 5 min (listed as 0.3 M KHCO3): 37.2; body temperature at 5 min (listed as 1.0 M KHCO3): 37.3; body temperature at 10 min (listed as 0.3 M KHCO3): 38.0; body temperature at 10 min (listed as 1.0 M KHCO3): 38.5; body temperature at 20 min (listed as 1.0 M KHCO3): 39.5; body temperature at 30 min (listed as 0.3 M KHCO3): 38.3; body temperature at 30 min (listed as 1.0 M KHCO3): 39.0; body temperature at 40 min (listed as 1.0 M KHCO3): 39.1; body temperature at 50 min (listed as 0.3 M KHCO3): 38.3 |
| [Cl-].[Na+] [3.0 M NaCl, NaCl] | 36.0 | 34.9 | 36.5 | 38.1 | 37.9 | 37.4 | 37.4 | 37.6 | 37.7 | – |
| CC(=O)[O-].[Na+] [1.0 M SODIUM ACETATE, SODIUM ACETATE] | 37.0 | – | 37.5 | 38.0 | 38.3 | 38.5 | 38.0 | 38.1 | 38.2 | body temperature at 0 min (pH 7.0-7.4, listed as 3.0 M SODIUM ACETATE): 37.5; body temperature at 5 min (listed as 3.0 M SODIUM ACETATE): 36.2; body temperature at 10 min (listed as 3.0 M SODIUM ACETATE): 37.0; body temperature at 20 min (listed as 3.0 M SODIUM ACETATE): 38.0; body temperature at 30 min (listed as 3.0 M SODIUM ACETATE): 37.7; body temperature at 40 min (listed as 3.0 M SODIUM ACETATE): 38.1; body temperature at 50 min (listed as 3.0 M SODIUM ACETATE): 38.6; body temperature at 60 min (listed as 3.0 M SODIUM ACETATE): 38.5 |
| N[C@@H](Cc1c[nH]c2ccccc12)C(=O)O [TRYPTOPHAN] | 36.9 | 36.4 | 36.8 | 37.1 | 37.4 | 36.5 | 36.8 | 37.0 | 36.9 | – |
